This is an account of results in publication PMC11306077, “Diterpenoids target SARS-CoV-2 RdRp from the roots of Euphorbia fischeriana Steud” (Frontiers in Plant Science, 2024).

What is called Kd is the constant that tells how readily two partners part at equilibrium. A high value points to a looser complex.

The target in this assay is T1, SARS-CoV-2 RdRp (RNA-dependent RNA polymerase, NSP12) (Severe acute respiratory syndrome coronavirus 2, UniProt P0DTD1).
T1 construct: gene rep
In words: microscale thermophoresis (MST). It is filed as binding. For orientation: In MST a laser heats a spot of the sample, and binding alters the fluorescence response.

With `C[C@H]1C(=O)CC[C@]2(C)[C@@H]1CC[C@@]13CC[C@@H]([C@@H](O)[C@H]12)[C@]1(COC(C)(C)O1)C3` [compound 1, (4R,5S,8S,9S,10R,11S,12S,16S)-ent-11α-hydroxy-16α,17-acetonide-19-noratisan-3-one], binding was put at a Kd of 31.1 µM. This counts as double-digit micromolar.
